Measurements taken from the supplement of paper PMC4314810.
± gives the standard deviation of the averaged measurements.

system: MCF7; assay: HRG-induced Akt activation (dPAkt = log2 pAkt/Akt HRG-stimulated minus log2 pAkt/Akt basal) (log2 ratio difference); higher = stronger HRG-induced Akt(T308) phosphorylation; settings: miRNA mimic concentration 10 nM; time after transfection 72 h; heregulin 10 ng/ml; stimulation time 1 h
Outline: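 MCF7 cells were plated […] in 96-well plates and transfected in two biological replicates with a library of 879 miRNA mimics (10 nM final) using Lipofectamine RNAiMax; 72 h later they were stimulated for 1 h with 10 ng/ml heregulin-beta1 or left unstimulated. After fixation in 4% PFA, phospho-Akt(T308) and total Akt were measured by In-Cell Western on an Odyssey, with signals corrected for column-wise fixation decay. Heregulin-induced Akt activation is the stimulated minus unstimulated value of the log ratio of phospho-Akt to total Akt, averaged over replicates. That log ratio is log2(pAkt/Akt).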

Sequence | HRG-induced Akt activation (log2)
UAUGGCACUGGUAGAAUUCACU | 1.65 ± 0.3
UCCAUUACACUACCCUGCCUCU | 1.37 ± 0.17
GAGCUUAUUCAUAAAAGUGCAG | 1.76 ± 0.036
GUCAGCGGAGGAAAAGAAACU | 1.47 ± 0.037
UAGGUUAUCCGUGUUGCCUUCG | 1.17 ± 0.16
UAAUCCUUGCUACCUGGGUGAGA | 1.79 ± 0.047
AGGAAGCCCUGGAGGGGCUGGAG | 1.1 ± 0.6
AAGCAGCUGCCUCUGAGGC | 2.16 ± 0.21
UCUCGCUGGGGCCUCCA | 1.22 ± 0.36
GUGUUAAUUAAACCUCUAUUUAC | 1.76 ± 0.034
UGGACUGCCCUGAUCUGGAGA | 1.55 ± 0.66
CACAAGGUAUUGGUAUUACCU | 1.79 ± 0.25
UCAAAUGCUCAGACUCCUGUGGU | 1.63 ± 0.19
CCAAUAUUACUGUGCUGCUUUA | 1.45 ± 0.28
CUUUUUGCGGUCUGGGCUUGC | 2.31 ± 0.28
AACCAGCACCCCAACUUUGGAC | 2.3 ± 0.14
AAUCGUACAGGGUCAUCCACUU | 1.46 ± 0.051
CCAUGGAUCUCCAGGUGGGU | 1.47 ± 0.17
CAAGUCUUAUUUGAGCACCUGUU | 1.94 ± 0.12
UCUCUGGAGGGAAGCACUUUCUG | 1.33 ± 0.18
AUUGACACUUCUGUGAGUAGA | 1.55 ± 0.046
UACAGUAUAGAUGAUGUACU | 1.39 ± 0.57
UAAAUUUCACCUUUCUGAGAAGG | 1.46 ± 0.22
AGGGACUUUCAGGGGCAGCUGU | 1.48 ± 0.18

Sequence | HRG-induced Akt activation (log2)
AGUUUUGCAGGUUUGCAUUUCA | 1.13 ± 0.15
GGUGGCCCGGCCGUGCCUGAGG | 1.55 ± 0.26
AGAGUCUUGUGAUGUCUUGC | 2.38 ± 0.067
AUUUGUGCUUGGCUCUGUCAC | 0.917 ± 0.31
UUCUCGAGGAAAGAAGCACUUUC | 1.61 ± 0.16
ACCAUCGACCGUUGAUUGUACC | 1.35 ± 0.22
ACGGAUGUUUGAGCAUGUGCUA | 2.15 ± 0.13
AGAGCUUAGCUGAUUGGUGAAC | 1.58 ± 0.27
CAACAAAUCCCAGUCUACCUAA | 1.51 ± 0.076
ACAGUCUGCUGAGGUUGGAGC | 1.54 ± 0.044
AGGCAGCGGGGUGUAGUGGAUA | 1.58 ± 0.27
UGAGGUAGUAGAUUGUAUAGUU | 1.22 ± 0.24
CGGGGCAGCUCAGUACAGGAU | 0.9798 ± 0.0068
UCGUACCGUGAGUAAUAAUGCG | 1.27 ± 0.031
AGCAGAAGCAGGGAGGUUCUCCCA | 1.55 ± 0.054
AUCACACAAAGGCAACUUUUGU | 1.78 ± 0.33
UGCCUACUGAGCUGAUAUCAGU | 1.62 ± 0.029
CUGCAAAGGGAAGCCCUUUC | 1.21 ± 0.33
UGGUUGACCAUAGAACAUGCGC | 1.2 ± 0.092
AGGGGCUGGCUUUCCUCUGGUC | 1.57 ± 0.17
CUAGACUGAAGCUCCUUGAGG | 1.46 ± 0.25
GAUGAUGAUGGCAGCAAAUUCUGAAA | 1.87 ± 0.33
GAAUGUUGCUCGGUGAACCCCU | 1.33 ± 0.039
UAUACCUCAGUUUUAUCAGGUG | 1.94 ± 0.15

Sequence | HRG-induced Akt activation (log2)
ACUGCCCCAGGUGCUGCUGG | 1.25 ± 0.16
AAAAACUGUAAUUACUUUU | 1.15 ± 0.3
AAACAAACAUGGUGCACUUCUU | 1.48 ± 0.08
GGAUAUCAUCAUAUACUGUAAG | 1.6 ± 0.044
UAAUCUCAGCUGGCAACUGUGA | 1.38 ± 0.37
GACUAUAGAACUUUCCCCCUCA | 1.07 ± 0.064
CCAGACAGAAUUCUAUGCACUUUC | 1.93 ± 0.7
CACUAGAUUGUGAGCUCCUGGA | 1.69 ± 0.57
AAAGUGCAUCUUUUUAGAGGAU | 0.724 ± 0.058
CUAUACAGUCUACUGUCUUUCC | 1.85 ± 0.18
UGCCUGUCUACACUUGCUGUGC | 1.34 ± 0.089
UCUAGGCUGGUACUGCUGA | 1.57 ± 0.13
AAGUGUGCAGGGCACUGGU | 2.33 ± 0.23
AAUUGCACGGUAUCCAUCUGUA | 1.15 ± 0.15
CUGGACUGAGCCGUGCUACUGG | 1.98 ± 0.076
CACUGUGUCCUUUCUGCGUAG | 1.86 ± 0.19
GACCUGGACAUGUUUGUGCCCAGU | 1.71 ± 0.12
GUCCCUGUUCAGGCGCCA | 1.73 ± 0.15
GGAGGGGUCCCGCACUGGGAGG | 1.82 ± 0.057
GCGACCCAUACUUGGUUUCAG | 1.44 ± 0.25
CCCCACCUCCUCUCUCCUCAG | 1.28 ± 0.38
AGACCUGGCCCAGACCUCAGC | 1.51 ± 0.39
ACCUGGCAUACAAUGUAGAUUU | 1.81 ± 0.29
UCUCCCAACCCUUGUACCAGUG | 1.51 ± 0.26

Sequence | HRG-induced Akt activation (log2)
AGGGUGUUUCUCUCAUCUCU | 2.04 ± 0.21
UUGCAUAGUCACAAAAGUGAUC | 1.36 ± 0.096
GCAGUCCAUGGGCAUAUACAC | 1.66 ± 0.12
UCAGCUGGCCCUCAUUUC | 1.12 ± 0.66
UUCUCAAGGAGGUGUCGUUUAU | 0.993 ± 0.67
UAUUCAUUUAUCCCCAGCCUACA | 1.59 ± 0.22
UGAUAUGUUUGAUAUAUUAGGU | 1.52 ± 0.077
AAGUGCCGCCAUCUUUUGAGUGU | 0.888 ± 0.34
ACACAGGGCUGUUGUGAAGACU | 1.74 ± 0.1
CCAGUUACCGCUUCCGCUACCGC | 1.323 ± 0.011
UUCCCUUUGUCAUCCUAUGCCU | 0.793 ± 0.043
UAUACAAGGGCAGACUCUCUCU | 1.48 ± 0.24
UGGGUCUUUGCGGGCGAGAUGA | 1.89 ± 0.21
CCCGGAGCCAGGAUGCAGCUC | 1.79 ± 0.39
ACAAAGUGCUUCCCUUUAGAGUGU | 1.41 ± 0.53
UGGAAUGUAAAGAAGUAUGUAU | 1.76 ± 0.27
UCCGAGCCUGGGUCUCCCUCUU | 1.37 ± 0.23
UAAGUGCUUCCAUGUUUUGGUGA | 0.743 ± 0.38
UUUUUCAUUAUUGCUCCUGACC | 1.62 ± 0.14
UGAGGCAGUAGAUUGAAU | 1.49 ± 0.26
UACUGCAGACAGUGGCAAUCA | 1.21 ± 0.45
UACUUGGAAAGGCAUCAGUUG | 1.28 ± 0.25
UGAGGUAGUAGGUUGUGUGGUU | 1.08 ± 0.14
UGAGAACUGAAUUCCAUAGGCU | 2.34 ± 0.1

Sequence | HRG-induced Akt activation (log2)
AGUGCCUGAGGGAGUAAGAGCCC | 1.72 ± 0.04
UUUCCGGCUCGCGUGGGUGUGU | 1.627 ± 0.015
GCUGGGCAGGGCUUCUGAGCUCCUU | 1.68 ± 0.082
UUAUAAAGCAAUGAGACUGAUU | 1.5 ± 0.79
UUCACAGGGAGGUGUCAU | 1.82 ± 0.08
ACAGUAGUCUGCACAUUGGUUA | 1.692 ± 0.0034
UUAAUAUCGGACAACCAUUGU | 1.72 ± 0.21
UUUAACAUGGGGGUACCUGCUG | 1.59 ± 0.42
ACUGCAGUGAAGGCACUUGUAG | 1.646 ± 0.0061
AGCUACAUUGUCUGCUGGGUUUC | 1.72 ± 0.17
UGGCCCUGACUGAAGACCAGCAGU | 1.11 ± 0.22
GGGUGGGGAUUUGUUGCAUUAC | 1.16 ± 0.097
AAACUACUGAAAAUCAAAGAU | 1.76 ± 0.11
AUGGAUAAGGCUUUGGCUU | 1.72 ± 0.027
CUAUACGGCCUCCUAGCUUUCC | 1.9 ± 0.13
UGAGUGCCGGUGCCUGCCCUG | 1.43 ± 0.08
UAAUACUGCCGGGUAAUGAUGGA | 1.08 ± 0.34
UGAUUGUCCAAACGCAAUUCU | 1.82 ± 0.3
UCCUUCUGCUCCGUCCCCCAG | 1.47 ± 0.042
AUCAACAGACAUUAAUUGGGCGC | 2.3 ± 0.38
UACCCAGAGCAUGCAGUGUGAA | 1.78 ± 0.12
UACUGCAUCAGGAACUGAUUGGA | 0.878 ± 0.64
GAAAGCGCUUCUCUUUAGAGG | 1.51 ± 0.33
AACAUUCAUUGUUGUCGGUGGGU | 2.236 ± 0.017

Sequence | HRG-induced Akt activation (log2)
UACAGUACUGUGAUAACUGAA | 1.57 ± 0.14
UCUACAGUGCACGUGUCUCCAG | 1.65 ± 0.062
GCUGCGCUUGGAUUUCGUCCCC | 1.62 ± 0.098
UUUGGUCCCCUUCAACCAGCUA | 1.61 ± 0.066
AUGACCUAUGAAUUGACAGAC | 1.43 ± 0.063
AACAUCACAGCAAGUCUGUGCU | 1.32 ± 0.38
UCUGGCUCCGUGUCUUCACUCCC | 0.873 ± 0.15
GGGAGCCAGGAAGUAUUGAUGU | 1.82 ± 0.069
ACAGGUGAGGUUCUUGGGAGCC | 1.32 ± 0.087
UUCUGGAAUUCUGUGUGAGGGA | 1.78 ± 0.2
AACAAUAUCCUGGUGCUGAGUG | 1.79 ± 0.41
AAAAGCUGGGUUGAGAGGGCGA | 1.44 ± 0.13
UAAAGUGCUUAUAGUGCAGGUAG | 1.57 ± 0.035
CUGUACAGCCUCCUAGCUUUCC | 2.26 ± 0.15
UUCAAGUAAUUCAGGUG | 1.22 ± 0.15
GAGCCAGUUGGACAGGAGC | 1.77 ± 0.38
GAAAGUGCUUCCUUUUAGAGGC | 0.832 ± 0.68
CAGUGCAAUGAUAUUGUCAAAGC | 1.07 ± 0.53
UUGGGGAAACGGCCGCUGAGUG | 2.08 ± 0.097
CAAAGUGCUUACAGUGCAGGUAG | 1.23 ± 0.17
